Legend:
Type in all cases: biochemical
[1] = tested on: endogenous coagulation; experiment: APTT coagulation time, reagents from amides or esters of gallic acid (Example 2); conditions: for Coagulation time, CCN / Coagulation time, CCP / Coagulation time, Heparins Batch 0811 / Coagulation time, Heparins Batch 1706 / Coagulation time, Lupus Batch 021 / Coagulation time, Pool N LIK 800: gallic acid derivative 100 μM
Source text: Thus, the invention also concerns a method for measuring the activated partial thromoboplastin time (APTT) comprising the steps of: • bringing a platelet-depleted plasma sample into contact with compounds or compositions in accordance with the invention, in the presence of substitutes for the phospholipids of the platelet membrane, under conditions that allow activation of the endogenous coagulation pathway; • adding Ca^2+ ions in a quantity equivalent to the quantity of these ions that have been complexed in the plasma sample; • measuring the time required to transform fibrinogen into fibrin.
In particular, within the context of carrying out the above method, the plasma sample is constituted by a platelet-depleted plasma and a coagulation activator is incubated with the plasma for a period of about 2 to 5 minutes, at 37° C. The phospholipid membrane substitutes are either added from the start of the reaction, or mixed with the activator, or added individually during the reaction.
Then the calcium ions are added, for example in the form of calcium chloride in a concentration in the range 20 mM to 25 mM. The time required for fibrin formation is then measured.
In the next example, the coagulation times for different plasmas were determined from APTT reagents obtained from amides or esters of gallic acid. • normal plasmas=pool of equivalent quantities of plasmas from normal subjects; • CCN=coag. control normal: control plasma, normal level; • CCP=coag. control patho: control plasma, disease level; • heparins=plasmas from patient receiving an anticoagulating treatment based on non-fractionated heparin in the form of sodium or calcium salts; • lupus=plasma from a patient presenting with Lupus anticoagulant Syndrome; • def.f VIIIc=plasma from a patient presenting with a f VIIIc deficit (haemophilia A).

[2] = tested on: endogenous coagulation; experiment: as above; conditions: gallic acid derivative 100 μM
[3] = tested on: endogenous coagulation; experiment: APTT coagulation time versus ethylene glycol gallate concentration (Example 6)
Description: The coagulating activity of an APTT reagent requires the joint action of two active principles: • a molecule activating the contact phase of the endogenous pathway. In fact, this was ethylene glycol gallate activated by heating to 80° C.; • a substitute for the phospholipids of the platelet membrane, cephaline, obtained by extracting rabbit brains with chloroform;
Optimum activity of the APTT reagent thus constituted depends on the concentrations of ethylene glycol gallate and cephaline.
The following tables show the results obtained for representative plasmas for different disorders and for some controls.

[4] = tested on: endogenous coagulation; experiment: APTT coagulation time, activation kinetics of ethylene glycol gallate heated at 80° C. (Example 3); conditions: 500 μM in solution buffered to pH 7.00, after heating for 24 hours at 80° C.
Description: After heating for 24 hours at 80° C., 500 μM of ethylene glycol gallate in solution buffered to a pH of 7.00 became active in an APTT coagulation test.
The procoagulating activity of the ethylene glycol gallate solution was compared with that of a reference reagent: CK-PREST, an APTT reagent in which the activator is kaolin. The instrument used to measure the coagulation time was an automated STA Diagnostica Stago haemostasis instrument (series n° 307).
The test plasmas were quality control plasmas:
CCN=coag control normal; CCP=coag control patho, batch n° 980901.
APTT reagent produced=ethylene glycol gallate, 500 μM, oxidised at 80° C.+Tricine, […], pH 7.00+cephaline (substitute for platelet phospholipids).

[5] = Ethylene Glycol gallate 1000 μM

O=C(OCCO)c1cc(O)c(O)c(O)c1 [ethylene glycol gallate]
Coagulation times compared with the reference reagent, CK-Prest ([1]; all plasmas of the table, derivative 100 μM): nearest results to those obtained with the reference reagent
Coagulation time, CCN [1]: 32.7 s
Coagulation time, CCP [1]: 50.5 s
Coagulation time, Heparins Batch 0811 [1]: 112.5 s
Coagulation time, Heparins Batch 1706 [1]: 65.7 s
Coagulation time, Lupus Batch 021 [1]: 45.7 s
Coagulation time, Pool N LIK 800 [1]: 37.4 s
Coagulation time, f VII def 25% [2]: 35.6 s
Coagulation time Control batch n° 80901 Normal ([3]; Ethylene Glycol gallate 10 μM): 130.6 s
Coagulation time Control batch n° 80901 Path ([3]; Ethylene Glycol gallate 10 μM): >140.0 s
Coagulation time Plasma (LA) MA 030 ([3]; Ethylene Glycol gallate 10 μM): >140.0 s
Coagulation time Plasma def f VIIIc ([3]; Ethylene Glycol gallate 10 μM): 121.9 s
Coagulation time Plasmas Heparins Batch 1635 ([3]; Ethylene Glycol gallate 10 μM): >140.0 s
Coagulation time Plasmas Heparins Batch 1726 ([3]; Ethylene Glycol gallate 10 μM): >140.0 s
Coagulation time Control batch n° 80901 Normal ([3]; Ethylene Glycol gallate 25 μM): 124.5 s
Coagulation time Control batch n° 80901 Path ([3]; Ethylene Glycol gallate 25 μM): 103.3 s
Coagulation time Plasma (LA) MA 030 ([3]; Ethylene Glycol gallate 25 μM): 103.3 s
Coagulation time Plasma def f VIIIc ([3]; Ethylene Glycol gallate 25 μM): 73.1 s
Coagulation time Plasmas Heparins Batch 1635 ([3]; Ethylene Glycol gallate 25 μM): >140.0 s
Coagulation time Plasmas Heparins Batch 1726 ([3]; Ethylene Glycol gallate 25 μM): >140.0 s
Coagulation time Control batch n° 80901 Normal ([3]; Ethylene Glycol gallate 50 μM): 88.6 s
Coagulation time Control batch n° 80901 Path ([3]; Ethylene Glycol gallate 50 μM): 99.6 s
Coagulation time Plasma (LA) MA 030 ([3]; Ethylene Glycol gallate 50 μM): 66.6 s
Coagulation time Plasma def f VIIIc ([3]; Ethylene Glycol gallate 50 μM): 44.8 s
Coagulation time Plasmas Heparins Batch 1635 ([3]; Ethylene Glycol gallate 50 μM): 73.1 s
Coagulation time Plasmas Heparins Batch 1726 ([3]; Ethylene Glycol gallate 50 μM): >140.0 s
Coagulation time Control batch n° 80901 Normal ([3]; Ethylene Glycol gallate 75 μM): 46.5 s
Coagulation time Control batch n° 80901 Path ([3]; Ethylene Glycol gallate 75 μM): 67.4 s
Coagulation time Plasma (LA) MA 030 ([3]; Ethylene Glycol gallate 75 μM): 50.4 s
Coagulation time Plasma def f VIIIc ([3]; Ethylene Glycol gallate 75 μM): 38.6 s
Coagulation time Plasmas Heparins Batch 1635 ([3]; Ethylene Glycol gallate 75 μM): 48.3 s
Coagulation time Plasmas Heparins Batch 1726 ([3]; Ethylene Glycol gallate 75 μM): 86.6 s
Coagulation time Control batch n° 80901 Normal ([3]; Ethylene Glycol gallate 100 μM): 38.4 s
Coagulation time Control batch n° 80901 Path ([3]; Ethylene Glycol gallate 100 μM): 46.2 s
Coagulation time Plasma (LA) MA 030 ([3]; Ethylene Glycol gallate 100 μM): 47.5 s
Coagulation time Plasma def f VIIIc ([3]; Ethylene Glycol gallate 100 μM): 38.2 s
Coagulation time Plasmas Heparins Batch 1635 ([3]; Ethylene Glycol gallate 100 μM): 48.0 s
Coagulation time Plasmas Heparins Batch 1726 ([3]; Ethylene Glycol gallate 100 μM): 80.0 s
Coagulation time Control batch n° 80901 Normal ([3]; Ethylene Glycol gallate 200 μM): 35.2 s
Coagulation time Control batch n° 80901 Path ([3]; Ethylene Glycol gallate 200 μM): 42.5 s
Coagulation time Plasma (LA) MA 030 ([3]; Ethylene Glycol gallate 200 μM): 46.7 s
Coagulation time Plasma def f VIIIc ([3]; Ethylene Glycol gallate 200 μM): 37.7 s
Coagulation time Plasmas Heparins Batch 1635 ([3]; Ethylene Glycol gallate 200 μM): 48.5 s
Coagulation time Plasmas Heparins Batch 1726 ([3]; Ethylene Glycol gallate 200 μM): 75.4 s
Coagulation time Control batch n° 80901 Normal ([3]; Ethylene Glycol gallate 300 μM): 34.3 s
Coagulation time Control batch n° 80901 Path ([3]; Ethylene Glycol gallate 300 μM): 39.6 s
Coagulation time Plasma (LA) MA 030 ([3]; Ethylene Glycol gallate 300 μM): 44.2 s
Coagulation time Plasma def f VIIIc ([3]; Ethylene Glycol gallate 300 μM): 37.5 s
Coagulation time Plasmas Heparins Batch 1635 ([3]; Ethylene Glycol gallate 300 μM): 47.7 s
Coagulation time Plasmas Heparins Batch 1726 ([3]; Ethylene Glycol gallate 300 μM): 73.7 s
Coagulation time Control batch n° 80901 Normal ([3]; Ethylene Glycol gallate 400 μM): 32.9 s
Coagulation time Control batch n° 80901 Path ([3]; Ethylene Glycol gallate 400 μM): 39.6 s
Coagulation time Plasma (LA) MA 030 ([3]; Ethylene Glycol gallate 400 μM): 43.4 s
Coagulation time Plasma def f VIIIc ([3]; Ethylene Glycol gallate 400 μM): 37.2 s
Coagulation time Plasmas Heparins Batch 1635 ([3]; Ethylene Glycol gallate 400 μM): 47.0 s
Coagulation time Plasmas Heparins Batch 1726 ([3]; Ethylene Glycol gallate 400 μM): 75.1 s
Coagulation time Control batch n° 80901 Normal ([3]; Ethylene Glycol gallate 500 μM): 32.6 s
Coagulation time Control batch n° 80901 Path ([3]; Ethylene Glycol gallate 500 μM): 48.5 s
Coagulation time Plasma (LA) MA 030 ([3]; Ethylene Glycol gallate 500 μM): 43.0 s
Coagulation time Plasma def f VIIIc ([3]; Ethylene Glycol gallate 500 μM): 37.5 s
Coagulation time Plasmas Heparins Batch 1635 ([3]; Ethylene Glycol gallate 500 μM): 47.3 s
Coagulation time Plasmas Heparins Batch 1726 ([3]; Ethylene Glycol gallate 500 μM): 76.1 s
Coagulation time Control batch n° 80901 Normal [3, 5]: 33.4 s
Coagulation time Control batch n° 80901 Path [3, 5]: 51.5 s
Coagulation time Plasma (LA) MA 030 [3, 5]: 42.5 s
Coagulation time Plasma def f VIIIc [3, 5]: 37.1 s
Coagulation time Plasmas Heparins Batch 1635 [3, 5]: 47.9 s
Coagulation time Plasmas Heparins Batch 1726 [3, 5]: 76.3 s
Activity in an APTT coagulation test [4]: became active

N[C@@H](CO)C(=O)O [H2N—CH—(CH2OH)—COOH]
Coagulation time, CCN [1]: 210.9 s
Coagulation time, CCP [1]: 189.3 s
Coagulation time, Heparins Batch 0811 [1]: >300.0 s
Coagulation time, Lupus Batch 021 [1]: 232.6 s
Coagulation time, Pool N LIK 800 [1]: 245.0 s
Coagulation time, f VII def 25% [2]: 153.0 s

ethylene diamine gallate [H2N—(CH2)n—NH2 n=2]
Coagulation time, CCN [1]: 138.1 s
Coagulation time, CCP [1]: 177.9 s
Coagulation time, Heparins Batch 0811 [1]: >300.0 s
Coagulation time, Heparins Batch 1706 [1]: 228.4 s
Coagulation time, Lupus Batch 021 [1]: 167.6 s
Coagulation time, Pool N LIK 800 [1]: 111.5 s
Coagulation time, f VII def 25% [2]: 113.0 s

From US7208266B2, “Endogenous coagulation activator compounds —use in exploring endogenous coagulation” (Societe Diagnostica-Stago, priority 2001, dated 2007)
